Data taken from US11738031B2, “Compositions and methods for preventing or treating muscle conditions” (The Board of Trustees of the Leland Stanford Junior …, priority 2017, dated 2023).
Entries after “also recorded” stand apart in the source; their conditions may differ. Like-named read-outs stand apart in the source and are kept apart here.

Key:
TA muscles = assay: In vivo muscle force after downhill treadmill exercise, aged mice, TA; set-up: species or system mouse; conditions: aged (18-22 mo) mice, 10 μg PGE2 after each run in week 1, force at week 5
Method: FIGS. 5Q and 5R show twitch force and tetanic force data, respectively, from a separate experiment in which mice were treated with PGE2 or vehicle only. Importantly, we observed an increase in isometric force in aged (18-22 mo) mice injected with PGE2 and subjected to downhill treadmill exercise. Briefly, aged mice ran daily (at 20 degrees downhill and 14 meter/min maximum speed for 10 min) for 5 days and rested on days 6 and 7. This eccentric exercise regime leads to MuSC expansion due to a cycle of muscle degeneration and regeneration. […] During week 2, mice were subjected to 5 days treadmill run only.

[1] = cited from earlier work; for half-life: in vivo
MuSCs = assay: EdU incorporation proliferation assay; assay type: cell-based, mouse; conditions: PGE2 10 ng/ml for 24 h, EdU 1 hr
Method: Proliferation assays: To assay proliferation, we used three different assays (hemocytometer, VisionBlue, and EdU). For each, we seeded MuSCs on flat hydrogels (hemocytometer and VisionBlue) or collagen-coated plates (EdU assay) at a density of 500 cells per cm^2 surface area. For hemocytometer cell number count, we collected cells at indicated timepoints by incubation with 0.5% trypsin in PBS for 5 min at 37° C. and quantified them using a hemocytometer at least 3 times. Additionally, we used the VisionBlue Quick Cell Viability Fluorometric Assay Kit (BioVision, catalog #K303) as a readout for cell growth in culture. Briefly, we incubated MuSCs with 10% VisionBlue in culture medium for 3 h, and measured fluorescence intensity on a fluorescence plate reader (Infinite M1000 PRO, Tecan) at Ex=530-570 nm, Em=590-620 nm. […] We quantified EdU positive cells using the MetaMorph Image Analysis software (Molecular Devices). Data analyses were blinded, where researchers performing cell scoring were unaware of the treatment condition given to sample groups analyzed.
To assay proliferation, we used three different assays (hemocytometer, VisionBlue, and EdU). […] For hemocytometer cell number count, we collected cells at indicated timepoints by incubation with 0.5% trypsin in PBS for 5 min at 37° C. and quantified them using a hemocytometer at least 3 times. […]

In the case of `CCCCC[C@H](O)/C=C/[C@H]1[C@H](O)CC(=O)[C@@H]1C/C=C\CCCC(=O)O` [PGE2, prostaglandin E2], the “force (twitch and tetanic) of TA muscles” value (TA muscles) is listed as “significant increase in force”, the half-life in vivo [1] is listed as “relatively short” and the half-life [1] is listed as 5 min. The half-life ([1]; listed as Dinoprostone) was “less than 5 minutes” and the “cell division assayed by EdU incorporation” value (MuSCs) was “increased cell division; also recorded: increase in cell division”.
